Experimental data as given in paper PMC5590943, “Pharmacological characterisation of S 47445, a novel positive allosteric modulator of AMPA receptors” (PLoS ONE, 2017).

Columns and labels:
[1] = system: Rat AMPA receptors; assay: AMPA-evoked currents, Xenopus laevis oocytes injected with rat cortex poly(A+) mRNA (two-electrode voltage clamp); type: cell-based; conditions: for Emax (fold increase): maximal potentiation, mean ± SEM; for EC2X: concentration giving a two-fold increase in current amplitude; for EC2X / EC50: geometric mean; for EC50: potentiation of 10 μM AMPA-evoked current
Protocol: (§1) Compounds were tested by bath application.

[2] = system: Human AMPA receptors; assay: AMPA-evoked currents, Xenopus laevis oocytes injected with human hippocampal poly(A+) mRNA; type: cell-based; conditions: for Emax (fold increase): maximal potentiation, mean ± SEM; for EC2X: concentration giving a two-fold increase in current amplitude; for EC2X / EC50: geometric mean; for EC50: potentiation of 10 μM AMPA-evoked current
Protocol: as §1

[3] = system: GluA3flop receptors; design: method as in PMID 9221774, PMID 11408529; conditions: Xenopus oocytes; cited from earlier work
[4] = system: rat primary cortical cell cultures; assay: LDH release toxicity assay on rat primary cortical cell cultures; conditions: MK801 1 μM; data not shown
[5] = molecular target: T1, GluA1flop/GluA2flip AMPA receptors (Homo sapiens, UniProt P42261+P42262, Q607R); assay: 10 μM glutamate-evoked currents in Xenopus laevis oocytes expressing GluA1flop/GluA2flip (repetitive pulses, GYKI52466); type: cell-based; conditions: GYKI52466 10 to 1000 μM; 10 μM glutamate
T1 construct: host or cells: Xenopus laevis oocytes
T1 sequence (P42261 19-906): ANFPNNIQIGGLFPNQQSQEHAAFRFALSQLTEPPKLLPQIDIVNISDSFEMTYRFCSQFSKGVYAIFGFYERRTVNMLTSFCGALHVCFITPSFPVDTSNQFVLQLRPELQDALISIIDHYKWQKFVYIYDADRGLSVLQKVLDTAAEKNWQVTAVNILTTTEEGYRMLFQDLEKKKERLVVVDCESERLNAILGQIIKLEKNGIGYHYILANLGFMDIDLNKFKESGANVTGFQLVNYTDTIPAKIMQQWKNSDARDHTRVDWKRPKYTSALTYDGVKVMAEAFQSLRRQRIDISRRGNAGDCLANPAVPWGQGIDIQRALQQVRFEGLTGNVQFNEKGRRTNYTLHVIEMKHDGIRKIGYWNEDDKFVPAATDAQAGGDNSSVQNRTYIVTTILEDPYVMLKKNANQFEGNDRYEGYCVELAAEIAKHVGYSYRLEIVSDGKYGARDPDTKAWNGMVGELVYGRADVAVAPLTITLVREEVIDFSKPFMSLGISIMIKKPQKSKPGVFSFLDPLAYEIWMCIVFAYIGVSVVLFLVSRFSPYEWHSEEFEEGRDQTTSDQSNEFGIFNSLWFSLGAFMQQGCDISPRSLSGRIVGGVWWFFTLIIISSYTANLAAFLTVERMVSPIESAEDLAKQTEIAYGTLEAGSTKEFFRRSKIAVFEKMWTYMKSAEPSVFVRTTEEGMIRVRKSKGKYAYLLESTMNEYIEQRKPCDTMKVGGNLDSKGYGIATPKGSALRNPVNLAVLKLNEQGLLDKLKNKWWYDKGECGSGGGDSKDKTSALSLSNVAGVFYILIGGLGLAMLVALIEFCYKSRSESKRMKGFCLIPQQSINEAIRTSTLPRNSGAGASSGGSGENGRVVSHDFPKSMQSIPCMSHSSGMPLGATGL
T1 sequence (P42262 22-883 isoform P42262-2 Q607R limits assumed): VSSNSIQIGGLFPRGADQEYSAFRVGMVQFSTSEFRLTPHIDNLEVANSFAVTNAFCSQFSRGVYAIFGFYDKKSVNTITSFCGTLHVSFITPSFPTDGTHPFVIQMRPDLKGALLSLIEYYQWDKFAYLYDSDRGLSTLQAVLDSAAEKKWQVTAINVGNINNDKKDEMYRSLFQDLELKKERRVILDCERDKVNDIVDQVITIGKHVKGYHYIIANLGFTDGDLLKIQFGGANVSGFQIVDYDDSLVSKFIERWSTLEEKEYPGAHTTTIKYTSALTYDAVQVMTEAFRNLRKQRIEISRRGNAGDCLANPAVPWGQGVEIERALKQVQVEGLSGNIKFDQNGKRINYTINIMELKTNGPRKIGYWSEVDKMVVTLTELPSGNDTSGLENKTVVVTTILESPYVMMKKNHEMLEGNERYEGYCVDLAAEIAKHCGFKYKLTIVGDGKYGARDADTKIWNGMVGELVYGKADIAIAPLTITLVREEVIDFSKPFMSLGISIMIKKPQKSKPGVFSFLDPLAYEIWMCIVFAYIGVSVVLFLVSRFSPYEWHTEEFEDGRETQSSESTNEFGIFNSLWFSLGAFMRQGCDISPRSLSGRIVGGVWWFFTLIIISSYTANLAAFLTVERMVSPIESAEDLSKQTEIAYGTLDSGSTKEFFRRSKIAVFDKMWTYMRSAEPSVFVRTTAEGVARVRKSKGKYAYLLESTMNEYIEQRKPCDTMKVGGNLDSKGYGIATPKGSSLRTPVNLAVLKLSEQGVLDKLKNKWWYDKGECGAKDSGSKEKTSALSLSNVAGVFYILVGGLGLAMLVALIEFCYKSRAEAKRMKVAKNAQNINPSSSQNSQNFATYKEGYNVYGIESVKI
Protocol: as §1
To test the inhibition, the selective AMPA receptor antagonist GYKI52446 was used from 10 to 1000 μM on the potentiation caused by S 47445 (1 μM).
EC50 were determined either using Matlab (Mathworks inc., Natick, USA) or SAS v9.2 (SAS Institute inc., Cary, USA) softwares. To have a comparative value between the tested drugs when EC50 could not be determined (absence of plateau at high concentrations), the EC2X was determined. EC2X corresponds to the concentrations of the drug responsible for a two-fold increase in the amplitude of the current.

[6] = system: isolated prefrontal cortex pyramidal neurons; design: method as in PMID 9221774, PMID 11408529; conditions: patch-clamp; cited from earlier work

| Structure (SMILES) | Emax (fold increase) [1] | Emax (fold increase) [2] | EC2X [1] | EC50 [1] | EC2X [2] | EC50 [2] | other results |
| --- | --- | --- | --- | --- | --- | --- | --- |
| O=C(c1ccc2nccnc2c1)N1CCCCC1 [CX516] | 1.72 ± 0.1 fold increase | 3.13 fold increase | – | – | – | – | – |
| O=C1c2cc3c(cc2OC2CCCN12)OCCO3 (centres unmarked) [CX614] | 30.32 ± 5.67 fold increase | 23.43 ± 2.32 fold increase | 1.03 µM | 17.3 µM | 0.88 µM | 11.4 µM | – |
| NC(=O)COc1c(F)cc(SCCNS(=O)(=O)c2ccccc2)cc1F [PEPA, 4-[2-(Phenylsulfonylamino)ethylthio]-2,6-Difluoro-Phenoxyacetamide] | – | – | – | – | – | – | Increase of agonist potency [3]: approximately 7 fold |
| C[C@]12N[C@H](Cc3ccccc31)c1ccccc12 [MK801, reference compound] | – | – | – | – | – | – | Effect on 100 μM glutamate-mediated toxicity [4]: completely reversed |
| NS(=O)(=O)c1cc2c(cc1Cl)NC(C1CC3C=CC1C3)NS2(=O)=O (centres unmarked) [Cyclothiazide] | 8.86 ± 0.79 fold increase | 9.40 ± 2.61 fold increase | 1.68 µM | 8.83 µM | 1.54 µM | 9.33 µM | – |
| CC(C)S(=O)(=O)NC[C@H](C)c1ccc(-c2ccc(CCNS(C)(=O)=O)cc2)cc1 [LY451395] | 14.03± 0.70 fold increase | – | 0.04 µM | 0.37 µM | – | – | – |
| CC1=NN=C(c2ccc(N)cc2)c2cc3c(cc2C1)OCO3.Cl.Cl [GYKI52466, 4-(8-Methyl-9H-1,3-dioxolo[4,5-h][2,3]benzodiazepin-5-yl)-benzenamine dihydrochloride, reference compound] | – | – | – | – | – | – | Effect on the potentiation caused by S 47445 (1 μM) [5]: concentration-dependently reversed |
| CC(CNS(=O)(=O)C(C)C)c1ccc(-c2ccc(C#N)cc2)cc1 (centres unmarked) [LY404187] | 16.40 ± 2.22 fold increase | 29.67 ± 2.67 fold increase | 0.32 µM | 3.01 µM | 0.37 µM | 4.64 µM | – |
| O=S1(=O)N[C@H]2CCCN2c2ccccc21 [S 18986] | 15.37 ± 2.21 fold increase | 14.51 ± 1.53 fold increase | 23.77 µM | 125 µM | 16.88 µM | – | – |
| CC(CNS(=O)(=O)C(C)C)c1ccc(-c2ccsc2)cc1 (centres unmarked) [LY392098] | – | – | – | – | – | – | Increase of agonist potency [6]: approximately 7 fold |
